Laboratory results taken from patent publication US4323648A, “Preparation of Monacolin K” (Sankyo Company Limited, priority 1979, dated 1982).

Key:
[1] = tested on: rats of the Wistar Imamichi strain; assay: Reduction of blood and liver cholesterol levels in Triton WR-1339 treated rats; format: in vivo; details: rat
Description: The animals used were rats of the Wistar Imamichi strain, each having a body weight of about 300 g. The tests were conducted on groups of rats, each group consisting of 5 animals. Each animal was intravenously injected with 400 mg/kg of Triton WR-1339 (a trade name for a material known to increase the blood cholesterol level) whilst simultaneously administering 10 mg/kg of Monacolin K either orally or intraperitoneally. 20 hours after oral administration or 14 hours after intraperitoneal administration, the rats were sacrificed by bleeding and the blood and livers were collected and their cholesterol levels were determined by conventional means.

[2] = target: cholesterol biosynthesis (crude enzymes from rat liver); assay: In vitro test with rat liver: inhibition of cholesterol biosynthesis from radioactive acetic acid; format: biochemical; details: acetic acid reacted with enzyme from rat liver
HMG-CoA reductase = target: T1, HMG-CoA reductase (Rattus norvegicus, UniProt P51639); assay: biochemical
T1 sequence (P51639 1-887): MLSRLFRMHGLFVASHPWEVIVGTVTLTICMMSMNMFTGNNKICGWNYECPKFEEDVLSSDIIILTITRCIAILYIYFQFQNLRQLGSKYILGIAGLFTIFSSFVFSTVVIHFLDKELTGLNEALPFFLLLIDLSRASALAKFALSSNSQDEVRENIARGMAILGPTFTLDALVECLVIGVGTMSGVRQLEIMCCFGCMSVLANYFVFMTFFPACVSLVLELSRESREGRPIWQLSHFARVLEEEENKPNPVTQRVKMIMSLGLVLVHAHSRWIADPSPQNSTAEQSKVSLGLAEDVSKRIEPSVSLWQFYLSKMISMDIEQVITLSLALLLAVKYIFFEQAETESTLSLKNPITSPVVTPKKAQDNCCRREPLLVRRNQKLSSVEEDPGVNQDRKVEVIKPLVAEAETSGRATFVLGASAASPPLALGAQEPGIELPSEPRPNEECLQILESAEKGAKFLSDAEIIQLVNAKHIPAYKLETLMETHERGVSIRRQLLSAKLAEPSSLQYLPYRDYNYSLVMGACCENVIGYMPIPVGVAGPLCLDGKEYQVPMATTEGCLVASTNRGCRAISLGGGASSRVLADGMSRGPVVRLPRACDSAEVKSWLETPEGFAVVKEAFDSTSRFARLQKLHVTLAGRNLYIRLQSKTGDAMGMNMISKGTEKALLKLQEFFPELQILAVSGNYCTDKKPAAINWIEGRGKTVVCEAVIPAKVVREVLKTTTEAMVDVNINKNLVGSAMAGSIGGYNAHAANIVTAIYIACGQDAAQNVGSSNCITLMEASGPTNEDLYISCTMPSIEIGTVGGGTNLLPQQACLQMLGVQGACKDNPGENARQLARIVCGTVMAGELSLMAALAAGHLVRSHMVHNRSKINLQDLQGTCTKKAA
From the text: The value is obtained by the product of the concentrations of enzyme and of inhibitor divided by the concentration of the enzyme-inhibitor complex.

Acute oral toxicity = details: in vivo, mouse
From the text: Not only does Monacolin K have a valuable inhibitory effect on the biosynthesis of cholesterol, but it also has a very low toxicity, making its use for the treatment of hypercholesteraemia potentially very attractive. Specifically the acute oral toxicity (LD50) of Monacolin K in the mouse is 1 g/kg body weight or more.

rabbits = assay: Reduction of blood cholesterol levels in rabbits; format: in vivo; details: rabbit, 1 mg/kg oral twice each day
Description: In this test, the ability of Monacolin K to reduce cholesterol levels in rabbit blood is measured. The animals employed should each weigh from 2.5 to 3.0 kg. At the beginning of the tests, blood is collected from a vein in an ear of each rabbit and the cholesterol level in the blood serum is measured by a conventional method. A predetermined quantity of Monacolin K or of a Monacolin K-containing culture broth is then administered orally continuously for from 1 to 5 days and the cholesterol level in the blood serum is measured at stages after the administration. The potency of the Monacolin K or Monacolin K-containing culture medium can be determined quantitatively from the blood cholesterol levels obtained prior to and after administration of the Monacolin K.
The test animals used were rabbits having a body weight of from 2.7. kg to 2.9 kg. Each rabbit was given orally 1 mg/kg of Monacolin K twice each day (morning and evening) continuously for 5 days. Prior to administration and at 3 and 5 days after administration, blood was collected from a vein in the ear and the cholesterol levels in the blood serum were determined.

[3] = format: physicochemical
From the text: Insoluble in hexane and petroleum ether.
The compound is neutral and is insoluble in neutral or acidic aqueous media. It is, however, converted to an acidic substance by treatment with alkali and this acidic substance is soluble in water. The acidic substance can be extracted with ethyl acetate or chloroform at acid pH values and will revert to Monacolin K on evaporation of the solvent.

[4] = 10 mg/kg oral, 20 hours after administration

With `CCC(C)C(=O)OC1CC(C)C=C2C=CC(C)C(CCC3CC(O)CC(=O)O3)C21` (stereo not shown) [Monacolin K] as the compound, how does the “reduction of blood cholesterol level vs control group (Triton WR-1339 alone)” value ([1]; 10 mg/kg intraperitoneal, 14 hours after administration) read?
Its value is 23.9%.

What about the “reduction of blood cholesterol level vs control group (Triton WR-1339 alone)” value [1, 4] of the same compound?
Its value is 22.4%.

And the “reduction of liver cholesterol level” value [1, 4]?
Its value is 16.7%.

What about the “concentration giving 50% inhibition of cholesterol biosynthesis” value [2] of the same compound?
Its value is 0.002 µg/mL.

And the Ki (HMG-CoA reductase; competitive with respect to HMG-CoA, read-out: Ki value (inhibition constant))?
Its Ki is 0.53 nM.

And the “manner of inhibition of HMG-CoA reductase” value (HMG-CoA reductase; with respect to HMG-CoA)?
The value was “competitive”.

And the LD50 (Acute oral toxicity)?
Its LD50 is ≥ 1000 mg/kg.

What about the “blood serum cholesterol level lower than prior to administration” value (rabbits; at 3 days) of the same compound?
The value was 15%.

And the “blood serum cholesterol level lower than prior to administration” value (rabbits; at 5 days)?
Its value is 29%.

Which Solubility [3] does the source give for `CCC(C)C(=O)OC1CC(C)C=C2C=CC(C)C(CCC(O)CC(O)CC(=O)O)C21` (stereo not shown) [acidic substance] here?
Its Solubility is “soluble”.
